PMC9317628, “Secondary Metabolites in the Dendrobium heterocarpum Methanolic Extract and Their Impacts on Viability and Lipid Storage of 3T3-L1 Pre-Adipocytes” (Nutrients, 2022)

Columns and labels:
3T3-L1 cells [1] = test: Oil Red O staining, cellular lipid content in differentiating cells; format: cell-based, mouse; conditions: for IC50: Mus musculus, 3T3-L1, based on percentage of Oil Red O-stained, read-out: IC50 to suppress cellular lipid accumulation; for effect on cellular lipid storage (percentage of Oil Red O-stained cells): 5 µM, 48 h exposure, staining on day 8, vs untreated vehicle control
Procedure: The mouse embryonic 3T3-L1 pre-adipocytes purchased from the American Type Culture Collection (ATCC, Manassas, VA, USA) were cultured at 37 °C with a 5% CO2 stream in a complete Dulbecco’s modified Eagle medium (DMEM) (Gibco, Gaithersburg, MA, USA) that contained 10% fetal bovine serum (FBS; Gibco, Gaithersburg, MA, USA), 1000 units mL^−1 of penicillin/streptomycin (Gibco, Gaithersburg, MA, USA), and 2 mM of L-glutamine (Gibco, Gaithersburg, MA, USA). For adipocyte differentiation, 3T3-L1 cells at 100% confluent were incubated at 37 °C with a 5% CO2 stream for two days in a differentiation medium made of the complete DMEM plus 0.5 mM isobutyl methylxanthine (IBMX) (Sigma Aldrich, St. Louis, MO, USA), 1 µM of dexamethasone (Sigma Aldrich, St. Louis, MO, USA), and 5 µg mL^−1 of insulin (Sigma Aldrich, St. Louis, MO, USA). Then, the medium was replaced with an insulin medium made of the complete DMEM plus 5 µg mL^−1 of insulin, and cells were continuously incubated under the same conditions for another two days. The medium was replaced with the complete DMEM every two days to maintain adipocyte development. Cellular lipid droplets developed along the differentiation program could be observed under a light microscope (Nikon Ts2, Tokyo, Japan). Oil Red O staining was performed to determine the content of lipid droplets in differentiating 3T3-L1 cells. The adipocyte differentiation program as described previously was established, and cells were exposed to each tested compound at 5 µM for 48 h after obtaining 100% confluence. Cells exposed to 0.5% (v/v) DMSO and 20 µM of oxyresveratrol served as untreated vehicle and positive controls, respectively. Tested compounds were diluted in the differentiation medium before testing, in which the concentrations of DMSO were restricted to be lower than 0.5% (v/v). After the treatments, differentiating 3T3-L1 cells on day 8 of the differentiation program were fixed with 10% formalin and incubated with the Oil Red O staining solution (Sigma Aldrich, St. Louis, MO, USA) at an ambient temperature for 1 h. Cells were then washed thrice with distilled water and 60% (v/v) isopropanol (Sigma Aldrich, St. Louis, MO, USA) to remove the excess dye. Oil Red O-stained 3T3-L1 cells were observed using a light microscope (Nikon Ts2, Tokyo, Japan). The cellular Oil Red O content was extracted using absolute isopropanol and measured for absorbance at a 510 nm wavelength by the microplate reader. The percentage of Oil Red O-stained cells was calculated after normalization with the total cellular protein content determined by a BCA protein assay kit (Thermo Scientific, Rockford, CA, USA).

[2] = MTT cytotoxicity assay (cell viability); format: cell-based, mouse; conditions: mouse, 3T3-L1 pre-adipocytes, 20 µM, relative to vehicle control, read-out: percentage of cell viability
Procedure: (§1) The mouse embryonic 3T3-L1 pre-adipocytes purchased from the American Type Culture Collection (ATCC, Manassas, VA, USA) were cultured at 37 °C with a 5% CO2 stream in a complete Dulbecco’s modified Eagle medium (DMEM) (Gibco, Gaithersburg, MA, USA) that contained 10% fetal bovine serum (FBS; Gibco, Gaithersburg, MA, USA), 1000 units mL^−1 of penicillin/streptomycin (Gibco, Gaithersburg, MA, USA), and 2 mM of L-glutamine (Gibco, Gaithersburg, MA, USA). For adipocyte differentiation, 3T3-L1 cells at 100% confluent were incubated at 37 °C with a 5% CO2 stream for two days in a differentiation medium made of the complete DMEM plus 0.5 mM isobutyl methylxanthine (IBMX) (Sigma Aldrich, St. Louis, MO, USA), 1 µM of dexamethasone (Sigma Aldrich, St. Louis, MO, USA), and 5 µg mL^−1 of insulin (Sigma Aldrich, St. Louis, MO, USA). Then, the medium was replaced with an insulin medium made of the complete DMEM plus 5 µg mL^−1 of insulin, and cells were continuously incubated under the same conditions for another two days. The medium was replaced with the complete DMEM every two days to maintain adipocyte development. Cellular lipid droplets developed along the differentiation program could be observed under a light microscope (Nikon Ts2, Tokyo, Japan). The cytotoxic effect of elucidated compounds from D. heterocarpum on 3T3-L1 cell viability was evaluated using 3-(4,5-dimethylthiazol-2-yl)-2,5-diphenyl tetrazolium bromide (MTT) (Sigma Aldrich, St. Louis, MO, USA) assay. 3T3-L1 cells were seeded in 96-well plates at a density of 2 × 10^3 cells/well and incubated at 37 °C with a 5% CO2 stream until reaching 100% confluent. Cells were then exposed to varying concentrations (5, 10, and 20 µM) of the tested compounds in the complete DMEM for 48 h. Before testing, every tested compound resuspended in absolute dimethyl sulfoxide (DMSO) (Sigma Aldrich, St. Louis, MO, USA) was prepared by dilution using the complete DMEM. The concentration of DMSO in each treatment was limited to <0.5% (v/v). DMSO at 0.5% (v/v) and 20 µM of oxyresveratrol (a known compound with the ability to suppress adipocyte differentiation) were included in the tests as untreated vehicle and positive controls, respectively. After exposure for 48 h, the medium was removed, and the MTT solution (0.45 mg mL^−1), prepared by dissolving in phosphate-buffered saline (PBS), was added. The assay was incubated at 37 °C with a 5% CO2 stream for 3 h. Then, the MTT solution was replaced with absolute DMSO to dissolve the purple formazan crystal that formed, which was further measured for absorbance at a 570 nm wavelength using a microplate reader (Anthros, Durham, NC, USA). The relative absorbance value between treated cells to vehicle control cells was presented as the percentage of cell viability. Non-cytotoxic concentrations of a tested compound were defined based on no significant difference in the percentages of cell viability derived from the treatments and the vehicle control.

3T3-L1 pre-adipocytes = test: MTT cytotoxicity assay (cell viability); format: cell-based, mouse; conditions: 48 h; for cytotoxic effect (cell viability vs untreated vehicle control): 5 µM (lowest tested concentration); for non-cytotoxic concentrations: no significant difference from vehicle control
Procedure: as §1

pancreatic lipase = conditions: cited from earlier work
α-glucosidase = conditions: cited from earlier work
3T3L-1 cells = tested on: 3T3L-1 cells; parameters: method as in PMID 32571087; conditions: cited from earlier work
p38 = test: Western blot, p38 phosphorylation ratio; format: cell-based, mouse; conditions: 48 h, vs untreated vehicle control
Procedure: (§2) The impacts of a tested compound on the expression and activation of proteins that are linked to cellular responses in the early phase of adipocyte differentiation were assessed using Western blot analysis. The list of proteins analyzed in this study included adipogenic regulators (i.e., PPARγ and C/EBPα) and the MAPK signaling pathways-mediated proteins (i.e., JNK, ERK, and p38). The expression or activation of each target protein was normalized with β-Actin as a reference cellular protein. The activation of JNK, ERK, and p38 was assessed using the phosphorylation ratio between those phosphorylated (i.e., p-ERK, p-JNK, and p-p38) and the sum of those phosphorylated and non-phosphorylated.
(§3) 3T3-L1 pre-adipocytes at 100% confluence were exposed for 48 h to a tested compound at non-cytotoxic concentrations prepared in the differentiation medium. Cells were then washed with PBS (pH 7.4) and used for protein extraction by incubation in an ice-cold radio-immunoprecipitation assay buffer (Thermo Scientific, Rockford, CA, USA) supplemented with the protease inhibitor cocktail (Roche Applied Science, Indianapolis, IN, USA) for 45 min. Derived cell lysates were centrifuged at 4 °C, 6440× g for 15 min, and the supernatant was collected. The BCA protein assay kit was conducted to quantify the total protein content in the supernatant. […]

PPARγ = test: Western blot, PPARγ expression at early adipocyte differentiation; format: cell-based, mouse; conditions: 10 µM, 48 h in differentiation medium
Procedure: as §2, §3

[3] = tested on: HeLa cervical cancer cell line; parameters: method as in doi:10.1177/1934578X20908678; conditions: cited from earlier work
3T3-L1 cells [4] = test: Nuclear staining with Hoechst 33342 / propidium iodide (cell death); format: cell-based; conditions: 20 µM, 48 h, Hoechst 33342/PI
Procedure: 3T3-L1 cell death after exposure to varying concentrations of the tested compounds was also determined by the nuclear staining technique. Hoechst 33342 (Sigma Aldrich, St. Louis, MO, USA) and propidium iodide (PI) (Sigma Aldrich, St. Louis, MO, USA) were used as staining dyes. After 48 h of treatment, the assay medium was removed from 3T3-L1 cells and replaced with PBS containing 2 µg mL^−1 of Hoechst 33342 and 1 µg mL^−1 of PI. Cells were stained for 30 min at 37 °C with a 5% CO2 stream and observed/photographed under a fluorescence microscope (Olympus IX51 with DP70, Tokyo, Japan). Bright cells with a disseminated nucleus under both blue and red filters were referred to as dead cells.

C/EBPα = test: Western blot, C/EBPα expression at early adipocyte differentiation; format: cell-based, mouse; conditions: 10 µM, 48 h in differentiation medium
Procedure: as §2, §3

ERK = test: Western blot, ERK phosphorylation ratio; format: cell-based, mouse; conditions: 48 h, vs untreated vehicle control
Procedure: as §2, §3

JNK = test: Western blot, JNK phosphorylation ratio; format: cell-based, mouse; conditions: 48 h, vs untreated vehicle control
Procedure: as §2, §3

Oc1cc(O)cc(/C=C/c2ccc(O)cc2O)c1 [oxyresveratrol, reference compound]
IC50 (3T3-L1 cells [1]): 20.2 ± 1.2 µM

COc1ccc(CCc2cc(OC)c(O)c3c2C(Cc2ccc(OC)cc2)c2cc(O)c(O)c(OC)c2O3)cc1 (stereo not shown) [Compound 5, dendrofalconerol A]
viability at 48 h, 20 µM [2]: 61.3 ± 1.1%
cytotoxic effect (cell viability vs untreated vehicle control) (3T3-L1 pre-adipocytes): significant decrease in cell viability
pancreatic lipase activity inhibition (pancreatic lipase): strong capability to inhibit
effect on cellular lipid storage (percentage of Oil Red O-stained cells) (3T3-L1 cells [1]): did not exhibit the inhibitory effect on lipid accumulation
α-glucosidase activity inhibition (α-glucosidase): strong capability to inhibit

COc1cc([C@H]2OC[C@H]3[C@@H]2CO[C@@H]3c2cc(OC)c(O)c(OC)c2)cc(OC)c1O [Compound 6, syringaresinol]
non-cytotoxic concentrations (3T3-L1 pre-adipocytes): ≤ 10 µM
promotion of glucose uptake (3T3L-1 cells): no function to promote glucose uptake
effect on cellular lipid storage (percentage of Oil Red O-stained cells) (3T3-L1 cells [1]): significantly decrease

COC(=O)CCc1ccc(O)cc1 [Compound 2, methyl 3-(4-hydroxyphenyl) propionate]
non-cytotoxic concentrations (3T3-L1 pre-adipocytes): ≤ 10 µM
effect on cellular lipid storage (percentage of Oil Red O-stained cells) (3T3-L1 cells [1]): significantly decrease

COc1ccc(CCc2cc(O)c(O)c(OC)c2)cc1 [Compound 3, 3,4-dihydroxy-5,4′-dimethoxybibenzyl]
p38 phosphorylation (p38; 2.5 µM): did not affect
p38 phosphorylation (p38; 10 µM): significantly suppressed
PPARγ expression relative to β-Actin (PPARγ): maximum suppression
non-cytotoxic concentrations (3T3-L1 pre-adipocytes): ≤ 10 µM
cytotoxic effect on HeLa cells [3]: did not show a cytotoxic effect
effect on cellular lipid storage (percentage of Oil Red O-stained cells) (3T3-L1 cells [1]): significantly decrease
IC50 (3T3-L1 cells [1]): 6.3 ± 0.1 µM
IC50 fold lower than oxyresveratrol (3T3-L1 cells [1]; lipid accumulation IC50 ratio to positive control): approximately 3 fold
dead cells by nuclear staining (3T3-L1 cells [4]): some dead cells
C/EBPα expression relative to β-Actin (C/EBPα): maximum suppression
ERK phosphorylation (ERK; 2.5 µM): did not affect
ERK phosphorylation (ERK; 10 µM): significantly suppressed
JNK phosphorylation (JNK; 2.5 µM): did not affect
JNK phosphorylation (JNK; 10 µM): significantly suppressed

COc1ccc(CCc2cc(OC)c(O)c(OC)c2)cc1 [Compound 1, amoenylin]
effect on cellular lipid storage (percentage of Oil Red O-stained cells) (3T3-L1 cells [1]): significantly decrease

COc1ccc(CCc2cc(OC)c3c(c2)O[C@@H](c2cc(OC)c(O)c(OC)c2)[C@H](CO)O3)cc1 [Compound 4, dendrocandin B]
viability at 48 h, 20 µM [2]: 61.3 ± 1.1%
cytotoxic effect (cell viability vs untreated vehicle control) (3T3-L1 pre-adipocytes): significant decrease in cell viability
pancreatic lipase activity inhibition (pancreatic lipase): did not hamper
effect on cellular lipid storage (percentage of Oil Red O-stained cells) (3T3-L1 cells [1]): absence of its bioactivity to suppress lipid accumulation
α-glucosidase activity inhibition (α-glucosidase): did not hamper
